We go through eleven compounds from patent US20110191897A1, “Plants Tolerant to HPPD Inhibitor Herbicides” (Bayer CropScience AG, priority 2009, published 2011).

Like-named read-outs stand apart in the source and are kept apart here.

The inhibition is the percentage by which the read-out fell short of the control. For orientation: Km means the substrate concentration at which the rate is half of its maximum. One may read the Ki as a dissociation constant, usually derived from enzyme kinetics or from competition with a known ligand.

For assay [1], the target named is T1, Blepharisma japonicum HPPD (SEQ ID No. 5) (Blepharisma japonicum, UniProt A8R3H6). Nature of the assay: biochemical. The settings on record: for inhibition at 5 µM: read-out: percentage of inhibition.
T1 sequence (A8R3H6 entry or part of it): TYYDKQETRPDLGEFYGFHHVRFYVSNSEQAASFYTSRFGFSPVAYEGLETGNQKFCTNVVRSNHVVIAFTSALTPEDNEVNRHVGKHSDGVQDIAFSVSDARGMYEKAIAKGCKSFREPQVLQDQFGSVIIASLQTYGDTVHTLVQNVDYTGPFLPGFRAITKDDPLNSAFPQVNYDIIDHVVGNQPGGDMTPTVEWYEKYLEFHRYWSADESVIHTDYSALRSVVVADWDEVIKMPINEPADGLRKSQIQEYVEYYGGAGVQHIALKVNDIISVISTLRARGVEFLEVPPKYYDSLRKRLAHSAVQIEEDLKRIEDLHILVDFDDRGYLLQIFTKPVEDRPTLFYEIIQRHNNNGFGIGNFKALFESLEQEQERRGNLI
Assay [2] concerns the target T2, Arabidopsis thaliana HPPD (SEQ ID No. 10) (Arabidopsis thaliana, UniProt P93836).
T2 construct: made in house; host or cells: E. coli K-12 BL21 (pQE30-AtHPPD)
T2 sequence (P93836 with tags, fused parts or gaps): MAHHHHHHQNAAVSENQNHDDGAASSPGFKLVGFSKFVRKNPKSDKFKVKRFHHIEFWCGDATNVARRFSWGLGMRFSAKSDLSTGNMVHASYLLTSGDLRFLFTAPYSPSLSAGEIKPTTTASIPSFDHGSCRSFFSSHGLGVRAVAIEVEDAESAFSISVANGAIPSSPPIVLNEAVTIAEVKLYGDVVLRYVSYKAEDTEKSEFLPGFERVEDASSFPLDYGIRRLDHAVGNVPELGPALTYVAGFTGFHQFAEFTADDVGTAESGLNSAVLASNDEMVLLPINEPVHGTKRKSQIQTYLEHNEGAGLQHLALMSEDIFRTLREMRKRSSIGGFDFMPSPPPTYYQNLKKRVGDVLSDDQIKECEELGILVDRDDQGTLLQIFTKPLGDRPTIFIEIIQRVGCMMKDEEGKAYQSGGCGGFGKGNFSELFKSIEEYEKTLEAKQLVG
Nature of the assay: Spectrophotometric HPPD activity assay in presence of HPPD inhibitors. Format: biochemical. The settings on record: for inhibition at 5 µM: read-out: percentage of inhibition.

In assay [3] the test system is tobacco plants with FMP37t-h, PAT and 2mEPSPS (pFCO112). The assay is described as follows: Glasshouse trial of tobacco with three tolerance genes. The format is in vivo, Nicotiana tobacum. The settings on record: 9 DAT. How it is done:
A binary vector for tobacco transformation is, for example, constructed with the CaMV35 promoter driving the expression of the gene FMP37t-h (SEQ ID No. 15), with a codon usage optimized for the expression in dicotyledoneous plants and at its 5′ extremity was added a sequence coding for an OTP, and further upstream a sequence TEV (Tobacco etch virus) to improve the stability of the mRNA in plants followed by the CaMV35S terminator. The nucleotide sequence of the gene FMP37t-h is given in SEQ ID No. 15. Additionally, the transformation vector also contains a PAT gene cassette in which the gene is driven by a CaVM35S promoter and followed by a CaMV35S terminator for glufosinate based selection during the transformation process and a 2mEPSPS gene cassette in which the gene is driven by an histone promoter from Arabidopsis to confer tolerance to the herbicide glyphosate to the transformed plants (see FIG. 3 H). The binary vector was called pFCO112. The above vector was used to transform leaf disks obtained from Nicotiana tobacum plants, according to Example 3.
Transgenic tobacco plants were transferred to the greenhouse and treated with glyphosate at a rate of 1121 g Al/ha. Seeds were produced from such tolerant tobacco plants and harvested. These seeds were put on soil to germinate in the glasshouse. Three to four weeks later, 50 plantlets per event were transferred to single pots. Two weeks later, plants of a size 4-6 cm were sprayed either with:
[…] […] Non-transgenic tobacco plants were completely killed by treatment using one or more of the above herbicides.

For assay [4], the system named is leaf disks of tobacco plants containing HPPD SEQ ID No. 7 (Blepharisma japonicum). Nature of the assay: Leaf disk regeneration on media with HPPD inhibitors. The conditions noted are these: 10^−6 M, 6 weeks. Format: cell-based, Nicotiana tabacum. Also on record: key to the marks not given beside the values. On the procedure: (§1) At the end of the experiments the level of regeneration was evaluated as followed:
(§2) “−” means that the leaf disks looked the same as leaf disk from wild type tobacco plants on media supplemented with the inhibitor mentioned above. “++++” means that the leaf disks looked like the leaf disks from the wild type tobacco plants on media without inhibitor. “+”, “++”, and “+++” indicate regenerated leaf disks were heavily (+), medium (++) and less (+++) affected by the presence of the inhibitors.

Assay [5] deals with leaf disks of tobacco plants containing HPPD SEQ ID No. 11 (Arabidopsis thaliana). Described as above. The format is cell-based, Nicotiana tabacum. The conditions noted are these: 10^−6 M, 6 weeks. On the procedure: as §1, §2
A further assay has as its system wild type tobacco plants. Nature of the assay: Glasshouse response to bicyclopyrone, injury classes. Format: in vivo, Nicotiana tabacum. The conditions noted are these: WT, 100 g Al/ha, 7 DAT. The text has this: (§3) Seeds of wild type tobacco plants and T1 tobacco plants carrying the gene from Blepharisma japonicum FMP37e coding for HPPD were sown on MS media (Murashige and Skoog […]) supplemented with […] kanamycin. After 4 weeks, rooted green plantlets were transferred to soil and grown for 3 weeks in the glasshouse as described above then sprayed with a mixture containing bicyclopyrone (100 g Al/ha), ammonium sulfate and methyl ester raps oil. The plants were classified in two categories based on the phenotype developed in response to the herbicide seven days after the treatment. […] In this case, only plants containing at least one T-DNA were exposed to the herbicidal treatment.

Assay [6] concerns T1 tobacco plants carrying FMP37e (kanamycin selected). The description is as above. The settings on record: 7 DAT. The format is in vivo, Nicotiana tabacum.
Excerpt: as §3

Assay [7] concerns the target T1, Blepharisma japonicum HPPD (SEQ ID No. 5). Nature of the assay: HPLC assay of HPPD in vitro kinetic properties. The format is biochemical. On the procedure: Km, Vmax, and kcat values for different HPPD enzyme preparations and Ki, K1=Kon, and K−1=Koff for different HPPD inhibitors were determined using a HPLC assay for measurements of HPPD activity. […] All assays were started by the addition of HPPD enzyme to the assay mixture and stopped at a series of times between 0 and 240 s by addition of 200 μl of the reaction mixture to reaction assay tubes containing 20 μl 10% perchloric acid. Precipitated protein was pelleted by a 5 minute centrifugation at 10,000 g. […] A standard set of concentrations of HGA were used to provide a standard curve in order to calibrate the 292 nm absorbance of the HGA peak versus HGA concentration.
For Km and Vmax value determinations the initial rates of the HPPD reaction at different substrate concentrations were determined from plots of HGA formed versus time and fitted to the Michaelis-Menten equation for unireactant enzymes using the ID Business Solutions Ltd. (www.idbs.com) XLfit software suite. For the determination of Ki, K1=Kon, and Ki=Koff values the time-courses of the HPPD reaction at different inhibitor concentrations were fitted to the equations for Mechanism A, competitive inhibition, for tight-binding inhibitors (Cha, S. (1975) Tight-binding inhibitors—I. Kinetic behaviour. Biochemical Pharmacology 24, 2177-2185) using the ID Business Solutions Ltd. XLfit software suite

Assay [8] concerns the target T2, Arabidopsis thaliana HPPD (SEQ ID No. 10). Nature of the assay: HPLC assay of HPPD in vitro kinetic properties. The format is biochemical. The settings on record: substrate HPP 10-400 μM, pH 7.8. How it is done:
Km, Vmax, and kcat values for different HPPD enzyme preparations and Ki, K1=Kon, and K−1=Koff for different HPPD inhibitors were determined using a HPLC assay for measurements of HPPD activity. […] All assays were started by the addition of HPPD enzyme to the assay mixture and stopped at a series of times between 0 and 240 s by addition of 200 μl of the reaction mixture to reaction assay tubes containing 20 μl 10% perchloric acid. Precipitated protein was pelleted by a 5 minute centrifugation at 10,000 g.
For Km and Vmax value determinations the initial rates of the HPPD reaction at different substrate concentrations were determined from plots of HGA formed versus time and fitted to the Michaelis-Menten equation for unireactant enzymes using the ID Business Solutions Ltd. (www.idbs.com) XLfit software suite.

[9] abbreviates: 5.0 × 10^−6M inhibitor (Table 4).
The mark [10] stands for this setting: substrate HPP 10-400 μM, pH 7.8.

As for `Cc1nn(C)c(O)c1C(=O)c1ccc(C(F)(F)F)cc1S(C)(=O)=O` [Pyrasulfotole], the pI50 in [1] (2 mM HPP, 3 minutes incubation) is listed as 4.4; in assay [2] (2 mM HPP, 3 minutes incubation), 5.4. The percentage of inhibition came to 0% in assay [1] (setting [9]) and 69% in assay [2] (setting [9]).
Consider `Cc1ccc(C(=O)COc2c(C(=O)c3ccc(Cl)c(C)c3Cl)c(C)nn2C)cc1` [Benzofenap], for which the IC50 in [1] (read-out: pI50 (converted)) was 3.16 µM; in assay [2] (read-out: pI50 (converted)), below 2.51 µM. Also, the inhibition at 5 µM in assay [1] was 85%; in [2], 90%.
As for `CS(=O)(=O)c1ccc(C(=O)C2C(=O)CCCC2=O)c(Cl)c1` [Sulcotrione, 2-[2-chloro-4-(methylsulfonyl)benzoyl]-1,3-cyclohexanedione], in [2], the IC50 was below 2.51 µM and the inhibition at 5 µM amounted to 74%.
Turning to `CP(=O)(O)CCC(N)C(=O)O` (stereo not drawn) [Glufosinate-ammonium], in [3] (line 634, 1000 g AI/ha), the “number of plants in Class I (no injuries)” value (from here on “number … (no injuries)”) is recorded as 10, the “number of plants in Class II (injury: 10-40%)” value (“number … (injury: 10-40%)” for short) was 0 and the “number of plants in Class III (injury: 41-100%)” value (“number … (injury: 41-100%)” for short) is 0. Further, in [3] (line 713, 1000 g AI/ha), the “number … (no injuries)” value was 10, the “number … (injury: 10-40%)” value was determined as 0 and the “number … (injury: 41-100%)” value worked out at 0.
On to `COCCOCc1nc(C(F)(F)F)ccc1C(=O)C1=C(O)C2CCC(C2)C1=O` (stereo not drawn) [Bicyclopyrone, 4-hydroxy-3-[[2-[(2-methoxyethoxy)methyl]-6-(trifluoromethyl)-3-pyridinyl]carbonyl]bicyclo[3.2.1]oct-3-en-2-one], for which the “level of regeneration of leaf disks” value in [4] is recorded as “++++”; in [5] it was “−”. The IC50 in assay [1] (read-out: pI50 (converted)) is 200 µM; in [2] it was 6.31 µM. Moreover, the inhibition at 5 µM in assay [1] worked out at 0%; in assay [2], 29%. Further, the “number of plants in Class I (injury: 0-30%)” value is 0 with wild type tobacco plants; 60 in assay [6] (line 113, 100 g Al/ha); 65 in [6] (line 207, 100 g Al/ha); 44 in [6] (line 208, 100 g Al/ha). Besides, the “number of plants in Class II (injury: 31-100%)” value is reported as 12 in the assay on wild type tobacco plants; 78 in [6] (line 113, 100 g Al/ha); above 100 in assay [6] (line 207, 100 g Al/ha); 90 in [6] (line 208, 100 g Al/ha). Moreover, the “% of tolerant plant” value in assay [6] (line 113, 100 g Al/ha) was 56%; in assay [6] (line 207, 100 g Al/ha), above 60%; in assay [6] (line 208, 100 g Al/ha), 67%.
For `CS(=O)(=O)c1ccc(C(=O)C2C(=O)CCCC2=O)c([N+](=O)[O-])c1` [Mesotrione, 2-[4-(methylsulfonyl)-2-nitrobenzoyl]-1,3-cyclohexanedione], the “level of regeneration of leaf disks” value is listed as “++++” in assay [4] and “−” in [5]. In assay [2], the IC50 is below 2.51 µM. The inhibition at 5 µM in assay [2] (setting [9]) worked out at 86%.
With `Cc1ccc(S(=O)(=O)Oc2c(C(=O)c3ccc(Cl)cc3Cl)c(C)nn2C)cc1` [Pyrazolate], the IC50 in [1] was 20 µM; in assay [2] (read-out: pI50 (converted)), 3.98 µM. Further, the inhibition at 5 µM amounted to 0% in assay [1] and 61% in assay [2] (setting [9]).
`O=C(O)C(=O)Cc1ccc(O)cc1` [HPP, para-hydroxyphenylpyruvate]: the Km worked out at 83 µM in [7] (setting [10]) and 6.3 µM in assay [8]. For the same compound, the results for the Vmax in assay [7] (setting [10]) and in assay [8] were 0.1 µM and 1.2 µM, respectively.
On to `O=C(O)CNCP(=O)(O)O` [Glyphosate], for which, in assay [3] (line 634, 1121 g AI/ha), the “number … (no injuries)” value amounted to 10, the “number … (injury: 10-40%)” value is on record as 0 and the “number … (injury: 41-100%)” value turned out to be 0. In addition, in assay [3] (line 713, 1121 g AI/ha), the “number … (no injuries)” value is 10, the “number … (injury: 10-40%)” value was 0 and the “number … (injury: 41-100%)” value was 0.
Take `CS(=O)(=O)c1ccc(C(=O)C2C(=O)CCCC2=O)c(Cl)c1COCC1CCCO1` (stereo not drawn) [Tefuryltrione, 2-[2-chloro-4-(methylsulfonyl)-3-[[(tetrahydro-2-furanyl)methoxy]methyl]benzoyl]-1,3-cyclohexanedione]: in [2] (setting [9]), the inhibition at 5 µM came to 100%.
Turning to `CS(=O)(=O)c1cc(C(F)(F)F)ccc1C(=O)C(C#N)C(=O)C1CC1` (stereo not drawn) [Diketonitrile, 2-cyano-3-cyclopropyl-1-(2-methylsulphonyl-4-trifluoromethylphenyl)-propane-1,3-dione], the Ki in [7] worked out at 6.6 µM. Besides, the inhibition at 5 µM in assay [2] (setting [9]) is 87%.
